{"source": "patent US20030229007A1", "about": "“Form of human renin and its use as a target in treatments for cardiac ischemia and arrhythmia” (priority 2002, published 2003)", "key": {"[1]": {"system": "human cardiac synaptosomes (sympathetic nerve endings)", "assay": "Ischemic NE release from synaptosomes isolated from human right atrium", "assay_type": "cell-based", "conditions": "70 min ischemia", "experimental": "(§1) Preparation of cardiac synaptosomes. Atrial specimens were freed from fat and connective tissue and minced in ice-cold 0.32 M sucrose containing 1 mM EGTA, pH 7.4, and 1 mM pargyline, to prevent enzymatic destruction of synaptosomal NE. Synaptosomes were isolated as previously described (Imamura et al., Circ. Res. 1995, 77:206-210). Briefly, minced tissue was digested with 120 mg collagenase (Type II, Worthington Biochemicals, Freehold, N.J.) per gm wet heart weight for 1 hr at 37° C. After low speed centrifugation (10 min at 120 g), the resulting pellet was suspended in 10 vol of 0.32 M sucrose and homogenized with a Teflon/glass homogenizer. The homogenate was spun at 650 g for 10 min and the pellet rehomogenized and respun. The pellet containing cellular debris was discarded, and the supernatants from the last two spins were combined and equally subdivided into 4 to 8 tubes and recentrifuged for 20 min at 20,000 g at 4° C. This pellet, which contained cardiac synaptosomes, was resuspended either in HEPES-buffered saline (HBS; 500 μl, normoxic conditions) or in glucose-free HBS which contained the reducing agent sodium dithionite (500 μl, ischemic conditions), and incubated in the absence or presence of angiotensinogen (for 1 hour) or other pharmacological agents for 20 min in a water bath at 37° C. prior to ischemia (see below). HBS contained 50 mM HEPES, pH 7.4, 144 mM NaCl, 5 mM KCl, 1.2 mM CaCl2, 1.2 mM MgCl2, 10 mM glucose. Each suspension functioned as an independent sample and was used only once. In every experiment, one sample was untreated (control, basal NE release).\nInduction of ischemia. Ischemia was induced by incubating either atrial fragments or synaptosomes for 70 min in glucose-free KHS (atrial tissue) or HBS (synaptosomes) bubbled with 95% N2 and 5% CO2, containing the reducing agent sodium dithionite (3 mM; PO2 ˜0 mm Hg, pH ˜7.3; ischemic NE release) (Hatta et al. J. Pharmacol Exp. Ther. 1997, 283:494-500). Matched control fragments and synaptosomes were incubated for an equivalent length of time with oxygenated KHS and HBS, respectively (normoxic NE release). When drugs were used, they were continued throughout the entire normoxic and ischemic periods.\nNorepinephrine assay. Incubating media were assayed for NE by high pressure liquid chromatography with electrochemical detection (Hatta et al. J. Pharmacol Exp. Ther. 1997, 283:494-500). Perchloric acid and EDTA were added to samples to achieve final concentrations of 0.01 N and 0.025%, respectively. The NE present in the effluent was adsorbed on acid-washed alumina adjusted at pH 8.6 with Tris-2% EDTA buffer, and then extracted into 150 μl of 0.1 N perchloric acid. These final sample aliquots were injected onto a 3 μm ODS reverse-phase column (3.2×100 mm, Bioanalytical System, West Lafayette, Ind.) with an applied potential of 0.65 V. The mobile phase consisted of monochloroacetic acid (75 mM), sodium EDTA (0.5 mM), sodium octylsulfate (0.5 mM) and acetonitrile (1.5%) at pH 3.0. The flow rate was 1.0 ml/min. No NE breakdown occurred during the 70-min ischemic period. Dihydroxybenzylamine was added to each sample as an internal standard prior to alumina extraction and used for calculation of the recovery during the extraction procedure. This recovery was 77% or better. The detection limit was approximately 0.2 pmol."}, "[2]": {"system": "human cardiac synaptosomes (sympathetic nerve endings)", "assay": "Ischemic NE release from human cardiac synaptosomes incubated with angiotensinogen", "assay_type": "cell-based", "conditions": "for effect on angiotensinogen-induced increase in ischemic NE release: angiotensinogen 400 nM", "experimental": "as §1\nInduction of ischemia. Ischemia was induced by incubating either atrial fragments or synaptosomes for 70 min in glucose-free KHS (atrial tissue) or HBS (synaptosomes) bubbled with 95% N2 and 5% CO2, containing the reducing agent sodium dithionite (3 mM; PO2 ˜0 mm Hg, pH ˜7.3; ischemic NE release) (Hatta et al. J. Pharmacol Exp. Ther. 1997, 283:494-500). […]"}, "[3]": {"system": "human right atrial tissue", "assay": "NE release from human right atrium incubated in ischemic conditions", "assay_type": "cell-based", "conditions": "70 min ischemia", "excerpt": "Source of human cardiac tissue. Specimens of right atrium (i.e., surgical waste tissue) were obtained from 34 patients undergoing cardiopulmonary bypass [29 males and 5 females, age 64.9±1.6 years; coronary artery bypass grafting (CABG) 30, valve replacement 4], following a protocol approved by the Institutional Review Board. Eight of the 30 CABG patients were chronically treated with β-adrenoceptor blocking agents. […] All patients chronically treated with ACE inhibitors were excluded from the study. At the time of surgery, a piece of atrial appendage measuring ˜1 cm^3 was removed from the atriotomy site.\nIncubation of atrial tissue. Atrial specimens were immediately transported to the laboratory in ice-cold oxygenated Krebs-Henseleit solution (KHS) of the following composition (mM): NaCl 118.2, KCl 4.83, CaCl2 2.5, MgSO4 2.37, KH2PO4 1.0, NaHCO3 25, and glucose 11.1. After removal of fat and connective tissue, specimens were divided into several fragments (each weighing 24.5±1.1 mg, wet weight, measured at the end of incubation). Each fragment was incubated for 15 min at 37° C. in 2 ml of KHS gassed with 95% O2 and 5% CO2 (Po2 ˜550 mm Hg, pH ˜7.4) containing the monoamine oxidase inhibitor pargyline (1 mM). Following the 15-min stabilization period, fragments were incubated for an additional 20 min in oxygenated KHS in the absence or presence of pharmacological agents. […]"}, "[4]": {"system": "human right atrial tissue", "conditions": "as previously reported (Hatta et al. 1997); cited from earlier work"}}, "note": "Structures can show the parent of a compound that is named as a salt. Square brackets hold non-standard residues; d marks the D form. Peptide text beside a SMILES is read from it. * marks the point of attachment. Sta = CC(C)C[C@H](N)[C@@H](O)CC(=O)O; Isovaleryl = CC(C)CC(=O)*", "data": [{"molecule": "CC(C)C[C@H](O)[C@H](O)[C@H](CC1CCCCC1)NC(=O)[C@@H](CC(=O)N(CC(=O)N(C)CCc1ccccn1)CC1CCCCC1)Cc1csc(N)n1", "note": "[BILA 2157BS]", "values": [{"measurement": "suppression of the enhancement in NE release elicited by ischemia", "setting": "[1]; 100 nM", "result": "~70", "unit": "%"}, {"measurement": "effect on angiotensinogen-induced increase in ischemic NE release", "setting": "[2]; 100 nM", "result": "prevented"}, {"measurement": "decrease in NE release", "setting": "[3]; 30 nM", "result": "~60", "unit": "%"}]}, {"molecule": "CNCCCN1c2ccccc2CCc2ccccc21", "note": "[DMI, desipramine hydrochloride]", "values": [{"measurement": "effect on ischemic NE release from atrial tissue", "setting": "[4]", "result": "inhibited"}, {"measurement": "inhibition at 0.3 µM", "setting": "[1]; Homo sapiens, 70 min, 300 nM", "result": "~50", "unit": "%"}]}, {"molecule": "CCN(c1nc(N)c(C(=O)N=C(N)N)nc1Cl)C(C)C", "note": "[EIPA, 5-(N-ethyl-N-isopropyl)-amiloride]", "values": [{"measurement": "inhibition of ischemic NE release", "setting": "[1]; 30 μM", "result": "~50", "unit": "%"}]}, {"molecule": "C[C@H](N[C@@H](CCc1ccccc1)C(=O)O)C(=O)N1CCC[C@H]1C(=O)O", "note": "[enalaprilat, Enalaprilat]", "values": [{"measurement": "reduction of the increase in NE release caused by ischemia", "setting": "[1]; 3 μM", "result": "~80", "unit": "%"}, {"measurement": "effect on angiotensinogen-induced increase in ischemic NE release", "setting": "[2]; 3 μM", "result": "prevented"}]}, {"molecule": "CC(C)CC(=O)N[C@H](C(=O)N[C@H](C(=O)N[C@@H](CC(C)C)[C@@H](O)CC(=O)N[C@@H](C)C(=O)N[C@@H](CC(C)C)[C@@H](O)CC(=O)O)C(C)C)C(C)C", "note": "[pepstatin-A] (Isovaleryl-VV[Sta]A[Sta]-OH)", "values": [{"measurement": "suppression of the enhancement in NE release elicited by ischemia", "setting": "[1]; 30 μM", "result": "~70", "unit": "%"}, {"measurement": "decrease in NE release", "setting": "[3]; 30 μM", "result": "~70", "unit": "%"}]}, {"molecule": "angiotensinogen: Human plasma angiotensinogen, renin substrate, purchased from Sigma-Aldrich (protein, UniProt P01019 25-476, looked up) Angiotensinogen: DRVYIHPFHLVIHNESTCEQLAKANAGKPKDPTFIPAPIQAKTSPVDEKALQDQLVLVAAKLDTEDKLRAAMVGMLANFLGFRIYGMHSELWGVVHGATVLSPTAVFGTLASLYLGALDHTADRLQAILGVPWKDKNCTSRLDAHKVLSALQAVQGLLVAQGRADSQAQLLLSTVVGVFTAPGLHLKQPFVQGLALYTPVVLPRSLDFTELDVAAEKIDRFMQAVTGWKTGCSLMGASVDSTLAFNTYVHFQGKMKGFSLLAEPQEFWVDNSTSVSVPMLSGMGTFQHWSDIQDNFSVTQVPFTESACLLLIQPHYASDLDKVEGLTFQQNSLNWMKKLSPRTIHLTMPQLVLQGSYDLQDLLAQAELPAILHTELNLQKLSNDRIRVGEVLNSIFFELEADEREPTESTQQLNKPEVLEVTLNRPFLFAVYDQSATALHFLGRVANPLSTA", "values": [{"measurement": "increase in ischemic NE release", "setting": "[2]; 400 nM angiotensinogen, 70 min ischemia", "result": "~70", "unit": "%"}]}]}
